# Results taken from patent US11465987B2, “Compounds for treatment of cancer” (ONCTERNAL THERAPEUTICS, INC., priority 2012, dated 2022).
# Where two headings read alike, the source gives them in different places.
# What was measured:
# [1] = system: MES-SA/DX5 cells; assay: Growth inhibition (SRB) assay, MES-SA/Dx5; assay type: cell-based; conditions: ratio of IC50 MES-SA/DX5 to MES-SA
# [2] = system: PC-3 human prostate cancer cell line; assay: cells; conditions: Homo sapiens
# From the text: (§1) Cells were stained with SRB solution.
# [3] = system: PC-3_TxR paclitaxel-resistant prostate cancer cells (P-gp over-expressing); assay: cells; conditions: Homo sapiens, PC3-TxR
# [4] = system: PC-3_TxR xenograft; assay: In vivo PC-3/TxR xenograft; conditions: for tumor growth inhibition (TGI): PC-3/TxR tumors
# [5] = system: DU 145 human prostate cancer cell line; assay: Cytotoxicity (SRB) assay, DU 145; assay type: cell-based; conditions: Homo sapiens
# From the text: as §1
# [6] = system: LNCaP human prostate cancer cell line; assay: Cytotoxicity (SRB) assay, LNCaP; assay type: cell-based; conditions: Homo sapiens, LNCaP
# From the text: as §1
# [7] = system: PPC-1 human prostate cancer cell line; assay: Cytotoxicity (SRB) assay, PPC-1; assay type: cell-based; conditions: Homo sapiens
# From the text: as §1
# [8] = system: MDA-MB-435 parental nonresistant melanoma cells; assay: Cytotoxicity (SRB) assay, MDA-MB-435; assay type: cell-based; conditions: Homo sapiens
# [9] = system: MDA-MB-435/LCCMDR1 multidrug-resistant melanoma cells; assay: Cytotoxicity (SRB) assay, MDA-MB-435/LCCMDR1; assay type: cell-based; conditions: for IC50: Homo sapiens; for P-gp substrate / multidrug resistance in words: MDR melanoma line vs sensitive parent line
# [10] = system: DU-145/TXR cells; assay: Growth inhibition, DU-145/TXR; assay type: cell-based; conditions: Homo sapiens
# [11] = system: confluent HUVEC monolayers; assay: Endothelial monolayer permeability assay; conditions: FITC-dextran leakage, 1, 2, 4 h
# [12] = system: NCI/ADR-RES (P-gp over-expressing resistant line of OVCAR-8); assay: Cytotoxicity (SRB) assay, NCI/ADR-RES; assay type: cell-based, human
# [13] = system: melanoma and prostate cancer cell lines; assay: Antiproliferative activity summarised over the cell line panel (range or average); assay type: cell-based; conditions: read-out: IC50 (range over tested cell lines)
# [14] = system: WM-164 melanoma cells; assay: Microtubule imaging (immunofluorescence); assay type: cell-based, human; conditions: WM-164 cells, 18 h
# From the text: Primary antibody for tubulin and fluorescence-labeled secondary antibody were subsequently added to the cells. Cell nuclei were stained by DAPI. Whole Cell Stain Green was also applied to all cells. All images were acquired with an Olympus IX71 inverted fluorescence microscope (Olympus Corp., Tokyo, Japan) with overlays from separate images of tubulin (red), nuclei (blue), and whole cells (green).
# [15] = system: HEK293-pcDNA3.1 cells; assay: Cytotoxicity assay, HEK293-pcDNA3.1 (parental line of the MRP/BCRP sublines); assay type: cell-based; conditions: Table 14B; parental cell line; read-out: IC50 ± SEM, HEK293-pcDNA3.1
# [16] = Pharmacokinetic study in Sprague-Dawley rats; conditions: rat, oral
# [17] = system: B16-F1 melanoma tumors; assay: In vivo B16-F1 melanoma allograft; set-up: species or system mouse
# Method: Female C57/BL mice, age 4-6 weeks, were purchased from Harlan Laboratories (Harlan Laboratories Inc., Indianapolis, Ind.). The animal housing met the Association for Assessment and Accreditation and Laboratory Animal Care specifications. All of the procedures were conducted in accordance with guidelines of our Institutional Animal Care and Use Committee.
# Tumor volume was expressed in cubic millimeters.
# [18] = system: OVCAR-8 human ovarian cell line; assay: Cytotoxicity (SRB) assay, OVCAR-8; assay type: cell-based; conditions: Table 14B, parental cell line, read-out: IC50 ± SEM, OVCAR-8
# [19] = system: A375 human melanoma xenograft; assay: In vivo A375 human melanoma xenograft; conditions: SHO mice, 31 days
# [20] = system: A375MA2 melanoma cell line; assay: Cytotoxicity assay, A375MA2; assay type: cell-based; conditions: Table 14B, n = 3; read-out: IC50 ± SEM, A375MA2
# [21] = system: A375 human melanoma cell line; assay: Cytotoxicity (SRB) assay, A375; assay type: cell-based; conditions: Homo sapiens, A-375, Table 14D; read-out: IC50 ± SEM, A375 (converted)
# [22] = read-out: IC50 PC-3, SRB assay, prostate cancer PC-3
# [23] = DU-145, Table 12, read-out: IC50 ± SEM, Du 145
# [24] = read-out: IC50 ± SEM, PC-3, Table 12
# [25] = Table 12, read-out: IC50 ± SEM, LNCaP (converted)
# [26] = PPC-1, Table 12, read-out: IC50 ± SEM, PPC-1 (converted)
# [27] = Table 14D, read-out: IC50 ± SEM, MDA-MB-435 (converted)
# [28] = Table 14D, read-out: IC50 ± SEM, MDA-MB-435/LCC-6MDR1 (converted)
# [29] = DU-145, Table 13A, read-out: inhibitory effects, DU145
# [30] = read-out: inhibitory effects, PC3, Table 13A
# [31] = Table 13A, read-out: inhibitory effects, LNCaP
# [32] = PPC-1, Table 13A, read-out: inhibitory effects, PPC1
# [33] = DU-145, Table 13A, read-out: inhibitory effects, DU-145/TXR
# [34] = read-out: inhibitory effects, PC3/TXR
structure (smiles),measurement,setting,value
"Fc1ccc(-c2nccc3ccc(-c4ccc5[nH]ccc5c4)cc23)cc1 [6c, 1-(4-Fluoro-phenyl)-7-(H-indol-5-yl)-isoquinoline]",Resistance factor,[1],1.7
"CC(=O)O[C@@]12CO[C@@H]1C[C@H](O)[C@@]1(C)C(=O)[C@H](O)C3=C(C)[C@@H](OC(=O)[C@H](O)[C@@H](NC(=O)OC(C)(C)C)c4ccccc4)C[C@@](O)([C@@H](OC(=O)c4ccccc4)[C@H]21)C3(C)C [docetaxel, reference compound]",IC50,"[2]; read-out: IC50, PC-3, Table 7",6.3 ± 0.4 nM
same,IC50,[2]; [22],1.2 ± 0.1 nM
same,IC50,[3]; read-out: IC50 PC-3/TxR,17.7 ± 0.7 nM
same,tumor growth inhibition (TGI),[4]; i.v. 10 mg/kg on day 1 and 9,14%
same,tumor growth inhibition (TGI),[4]; i.v. 20 mg/kg on day 1 and 9,56%
same,Tumor size End,"[4]; PC-3/TxR xenograft, IV 10 mpk, day 1 and 9, day 19, […]",1774 ± 183 mm^2
"COc1cc(C(=O)c2c[nH]c(-c3ccc(C(C)(C)C)cc3)n2)cc(OC)c1OC [12w, (2-(4-tert-butylphenyl)-1H-imidazol-4-yl)(3,4,5-trimethoxyphenyl)methanone]",IC50,[5]; [23],1700 nM
same,IC50,[2]; [24],436 nM
same,IC50,[6]; [25],423 nM
same,IC50,[7]; [26],294 nM
same,IC50,[8]; [27],3690 nM
same,IC50,[9]; [28],3070 nM
"COc1cc(C(=O)c2nc(-c3ccccc3)c[nH]2)cc(OC)c1OC [70a, (4-Phenyl-1H-imidazol-2-yl)(3,4,5-trimethoxyphenyl)methanone and (5-phenyl-1H-imidazol-2-yl)(3,4,5-trimethoxyphenyl)methanone]",IC50,[5]; [29],21.5 nM
same,IC50,[2]; [30],14 nM
same,IC50,[6]; [31],6 nM
same,IC50,[7]; [32],13 nM
same,IC50,[8]; [27],79 nM
same,IC50,[9]; [28],43 nM
same,IC50,[10]; [33],22.9 nM
"COc1ccc(/C=C\c2cc(OC)c(OC)c(OC)c2)cc1O [CA4, Combretastatin A-4]",permeability of endothelial cell monolayer in words,[11],increased permeability
"COc1cc(Cc2nc(-c3ccccc3)c(-c3ccccc3)[nH]2)cc(OC)c1OC [102 e, 4,5-Diphenyl-2-(3,4,5-trimethoxybenzyl)-1H-imidazole]",IC50,"[8]; Table 14C, melanoma cells, read-out: IC50 ± SEM MDA-MB-435",> 50000 nM
same,IC50,"[9]; Table 14C, melanoma cells, read-out: IC50 ± SEM MDA-MB-435/LCC-6MDR1",> 50000 nM
"COc1cc(C(=O)c2c[nH]c(-c3ccc(C(C)C)cc3)n2)cc(OC)c1OC [12v, (2-(4-isopropylphenyl)-1H-imidazol-4-yl)(3,4,5-trimethoxyphenyl)methanone]",IC50,[5]; [23],482 nM
same,IC50,[2]; [24],136 nM
same,IC50,[6]; [25],171 nM
same,IC50,[7]; [26],173 nM
same,IC50,[8]; [27],312 nM
same,IC50,[9]; [28],250 nM
"COc1cc(C(=NC#N)c2csc(-c3ccccc3)n2)cc(OC)c1OC [2j, N-((2-phenylthiazol-4-yl)(3,4,5-trimethoxyphenyl)methylene)cyanamide]",IC50,[2]; [22],27 ± 1 nM
same,Resistance factor,[12]; NCI/ADR-RES relative to OVCAR-8,0.4
same,IC50,[13],20 to 60 nM
"COc1ccc(S(=O)(=O)Nc2cccnc2Nc2ccc(O)cc2)cc1 [ABT-751, reference compound]",IC50,"[9]; Table 14B, MDR1 overexpressed, read-out: IC50 ± SEM, MDA-MB-435/LCC6MDR1",577 ± 31 nM
same,P-gp substrate / multidrug resistance in words,[9],"not susceptible to MDR1, MRP, or BCRP"
same,effect on microtubules in words,[14],microtubule fragmentation
same,IC50,[15],645 ± 153 nM
"O=C(c1ccc(F)cc1)c1cn(S(=O)(=O)c2ccccc2)c(-c2ccc(Cl)cc2)n1 [11fb, (2-(4-chlorophenyl)-1-(phenylsulfonyl)-1H-imidazol-4-yl)(4-fluorophenyl)methanone]",IC50,"[9]; MDA-MB-435/LCCMDR1, read-out: IC50 MDR melanoma cell line",35 nM
same,resistance index,[9]; MDA-MB-435/LCCMDR1 vs MDA-MB-435,0.7
"COc1cc(C(=O)c2csc(Nc3ccc(F)cc3)n2)cc(OC)c1OC.Cl [5Hc, (2-(p-fluorophenylamino)thiazol-4-yl)(3,4,5-trimethoxyphenyl)methanone hydrochloride salt]",increased exposure (AUC) by the oral route compared to 1h,[16],more than 4.3 fold
"CCn1cc(-c2ccccc2)nc1C(=O)c1cc(OC)c(OC)c(OC)c1 [70n, (1-Ethyl-4-phenyl-1H-imidazol-2-yl)(3,4,5-trimethoxyphenyl)methanone]",IC50,[5]; [29],66 nM
same,IC50,[2]; [30],25 nM
same,IC50,[6]; [31],29 nM
same,IC50,[10]; [33],66 nM
same,IC50,[3]; [34],20 nM
"COc1cc(C(=O)c2nc(-c3ccccc3)cn2C)cc(OC)c1OC [70m, (1-Methyl-4-phenyl-1H-imidazol-2-yl)(3,4,5-trimethoxyphenyl)methanone]",IC50,[5]; [29],26 nM
same,IC50,[2]; [30],16 nM
same,IC50,[7]; [32],13 nM
same,IC50,[10]; [33],27 nM
same,IC50,[3]; [34],7.5 nM
"CN(C)/N=N/c1[nH]cnc1C(N)=O [DTIC, 5-(3,3,-dimethyl-1-triazenyl)-imidazole-4-carboxamide, reference compound]",tumor volume reduction,"[17]; C57/BL mice, 60 mg/kg i.p. daily, 14 days",51%
same,tumor growth inhibition (TGI),"[17]; C57BL/6 mice, 60 mg/kg, 13 days",51%
"O=C(c1ccc(F)cc1)c1c[nH]c(-c2ccc(Cl)cc2)n1 [12fb, (2-(4-chlorophenyl)-1H-imidazol-4-yl)(4-fluorophenyl)methanone]",IC50,[18],45 ± 2 nM
same,IC50,"[12]; Homo sapiens, NCI/ADR-RES, Table 14B, MDR1 overexpressed, read-out: IC50 ± SEM, NCI/ADR-RES",20 ± 6 nM
same,P-gp substrate / multidrug resistance in words,[9],not substrates for P-gp
same,tumor growth inhibition (TGI value),"[17]; C57BL/6 mice, 15 mg/kg, 13 days",32%
same,tumor growth inhibition (TGI value),"[17]; C57BL/6 mice, 45 mg/kg, 13 days",82%
same,well tolerated dose,[19],25 mg/kg
same,IC50,[20],55 ± 4 nM
same,IC50,[15],54 nM
"CCc1ccc(-c2nc(C(=O)c3cc(OC)c(OC)c(OC)c3)c[nH]2)cc1 [12q, (2-(4-ethylphenyl)-1H-imidazol-4-yl)(3,4,5-trimethoxyphenyl)methanone]",IC50,[21],1.4 nM
same,IC50,[5]; [23],25 nM
same,IC50,[2]; [24],13 nM
same,IC50,[7]; [26],15 nM
same,IC50,[8]; [27],107 ± 5 nM
same,IC50,[9]; [28],27 ± 3 nM
same,IC50,"[10]; Table 12, in parentheses in the Du 145 column, read-out: IC50, DU-145/TXR",20 nM
"COc1ccc(-c2nc(C(=O)c3ccc(F)cc3)c[nH]2)cc1 [12cb, (4-fluorophenyl)(2-(4-methoxyphenyl)-1H-imidazol-4-yl)methanone]",IC50,[18],25 ± 2 nM
same,effect on microtubules in words,[14],microtubule fragmentation
same,IC50,[20],44 ± 5 nM
same,IC50,[15],12 ± 2 nM
